Assay results reported in ChEMBL document CHEMBL2150902, “Novel AI-2 quorum sensing inhibitors in Vibrio harveyi identified through structure-based virtual screening” (Bioorg Med Chem Lett, 2012).

How the values were obtained:
[1] = Inhibition of LuxP/LuxQ mediated AI2-dependent quorum sensing in Vibrio harveyi MM32 incubated for 4 to 6 hrs measured every 30 mins by luminescence assay
Vibrio harveyi = assay: Growth inhibition of Vibrio harveyi MM32 by spectrophotometry; assay type: organism-based; settings: in vivo

| Structure (SMILES) | IC50 [1] | growth inhibition (GI) (Vibrio harveyi) |
| --- | --- | --- |
| C=CCOC(=O)C1=CS(=O)(=O)c2ccccc21 | 3.06 µM | Toxic |
| CSC1=CS(=O)(=O)c2ccccc21 | 41 µM | Toxic |
| Fc1ccccc1-c1ccc(CNCc2ccco2)o1 | 14.8 µM | Toxic |
| Cc1cc(=O)n2nc(N)c(/N=N/c3ccccc3)c2[nH]1 | 19.8 µM | Toxic |
| O=C(O)c1ccc(-c2c(Cl)cc([N+](=O)[O-])cc2Cl)o1 | 40.1 µM | Non-toxic |

More lines, main results first:

| IC50 [1] | Structure (SMILES) | growth inhibition (GI) (Vibrio harveyi) |
| --- | --- | --- |
| 5.51 µM | Cn1cnnc1SCC(=O)Nc1nc2ccccc2s1 | Non-toxic |
| 3.42 µM | CSc1nccc(Oc2ccccc2Cl)n1 | Non-toxic |
